In brackets after ≈: the same amount, converted by molar mass.
Legend:
[1] = test system: vancomycin-resistant (VRE) E. faecalis ATCC BAA-2365; test: MIC determination on vancomycin-resistant E. faecalis; format: cell-based, Enterococcus faecalis; conditions: Mueller-Hinton broth (MHB)
Procedure: Further experiments were conducted using the clinically relevant Gram-positive bacterial strain of vancomycin-resistant (VRE) E. faecalis ATCC BAA-2365, in order to determine the Minimal Inhibitory Concentration (MIC) which is the minimal concentration required to prevent bacterial growth.
A single colony selected from E. faecalis VRE is resuspended and cultured in the brain heart infusion (BHI) broth overnight (O/N) in aerobic conditions (37° C. with 220 rpm shaking), next day a 1:100 inoculum in Mueller-Hinton broth (MHB) is incubated in aerobic conditions for 3 hr (OD=0.08-0.1) and an inoculum of 1:300 dilution, corresponding to 3×10^5 CFU/ml, is incubated in presence or absence of different concentrations of the tested molecules in 1% DMSO. After O/N growth the OD of each culture is measured at 600 nm (OD600) in a spectrophotometer (Victor 3-Perkin Elmer). The MIC represents the concentration at which there is no visible growth of bacteria, i.e. ΔOD at 600 nm equal to zero (blank is the medium alone).

MRSA = test: Minimal Bactericidal Concentration (MBC) for MRSA; format: cell-based, Staphylococcus aureus; conditions: for MBC: Staphylococcus aureus, MRSA, 99.9% of initial inoculum killed over 24 hours
Procedure: We have determined the Minimal Bactericidal Concentration (MBC) of the pyrazolopyrimidine molecule 2666 for the MRSA strain and the MBC of the purine molecules 2329 and 2833 for MRSA and the MRSE strain respectively.
To determine the MBC, bacteria were grown as per MIC determination in presence of the pyrazolopyrimidine molecule 2666 for MRSA or in presence of the purine molecule 2833 for MRSE or 2329 for MRSA. At 24 hours bacteria were plated on TSB agar plates by the broth microdilution method, and colonies formed on the plates were counted next day.
The MBC represents the lowest concentration at which 99.9% bacteria of the initial inoculum are killed over 24 hours.

[2] = test system: S. epidermidis (ATCC 35984) 24h-mature biofilm; test: S. epidermidis 24h-mature biofilm, crystal violet biomass; format: cell-based, Staphylococcus epidermidis; conditions: 80 μM; 24 h treatment of 24-hour mature biofilm
Procedure: In another experiment we let adhere 0.5×10^8 CFU/ml S. epidermidis cells for 4 hr and let the biofilm form for additional 24 hr in presence of 0.25% glucose, at this point we treated the biofilm with different concentrations of molecule 2329 for 24 h in TSB with 0.25% glucose and determined the biofilm biomass using the crystal violet staining.
For biofilm analysis, we first washed the biofilm 3 times with NaCl 0.9% to eliminate all planktonic bacteria, before incubation with a staining Crystal Violet 1% solution in distilled H2O (dH2O).
Wells are washed 3 times with dH2O to eliminate unbound crystal violet. 400 μl Acetic Acid 10% is then added and incubated at RT for 10 min. Absorbance is measured in triplicate at 570 nm, reflecting total biomass of the biofilm.

Compound | MIC [1] | MBC relative to MIC, MRSA (MRSA) | MBC (MRSA) | mature biofilm biomass (crystal violet, absorbance 570 nm) [2]
C=CCn1cnc2c(N[C@@H]3C[C@H]3c3ccc(F)c(F)c3)nc(SCCC)nc21 [Molecule 2412, 9-allyl-N-((1R,2S)-2-(3,4-difluorophenyl)cyclopropyl)-2-(propylthio)-9H-purin-6-amine] | > 50 µM | – | – | –
CCSc1nc(N[C@@H]2C[C@H]2c2ccc(F)c(F)c2)c2cnn(C)c2n1.Cl [Molecule 2666, N-((1R,2S)-2-(3,4-difluorophenyl)cyclopropyl)-6-(ethylthio)-1-methyl-1H-pyrazolo[3,4-d]pyrimidin-4-amine hydrochloride] | – | around 2 times | 40 µM | –
CCCSc1nc(N[C@@H]2C[C@H]2c2ccc(F)c(F)c2)c2ncn(CC)c2n1 [Molecule 2348, N-((1R,2S)-2-(3,4-difluorophenyl)cyclopropyl)-9-ethyl-2-(propylthio)-9H-purin-6-amine] | > 50 µM | – | – | –
CCCSc1nc(N[C@@H]2C[C@H]2c2ccc(F)c(F)c2)c2ncn(C)c2n1 [Molecule 2329, N-((1R,2S)-2-(3,4-difluorophenyl)cyclopropyl)-9-methyl-2-(propylthio)-9H-purin-6-amine] | 25 µM (≈ 9.39 µg/mL) | around 2 times | 40 µM (≈ 15 µg/mL) | could reduce
C#CCn1cnc2c(N[C@@H]3C[C@H]3c3ccc(F)c(F)c3)nc(SCCC)nc21 [Molecule 2452, N-((1R,2S)-2-(3,4-difluorophenyl)cyclopropyl)-9-(prop-2-yn-1-yl)-2-(propylthio)-9H-purin-6-amine] | > 50 µM | – | – | –
